# Measured values from article PMC3274775 (ACS medicinal chemistry letters, 2011).
# Entries after “also recorded” stand apart in the source; their conditions may differ. Read-outs that look alike come from different tables or passages of the source.
# Experiments:
# CYP2D6 = CYP2D6 (Homo sapiens, UniProt P10635); assay: CYP inhibition/activation in pooled human liver microsomes; type: in vitro ADME
# UGT 1A1 [1] = biological target: T1, UGT 1A1 (Homo sapiens, UniProt P22309); assay: UGT substrate assay
# T1 sequence (P22309 26-533): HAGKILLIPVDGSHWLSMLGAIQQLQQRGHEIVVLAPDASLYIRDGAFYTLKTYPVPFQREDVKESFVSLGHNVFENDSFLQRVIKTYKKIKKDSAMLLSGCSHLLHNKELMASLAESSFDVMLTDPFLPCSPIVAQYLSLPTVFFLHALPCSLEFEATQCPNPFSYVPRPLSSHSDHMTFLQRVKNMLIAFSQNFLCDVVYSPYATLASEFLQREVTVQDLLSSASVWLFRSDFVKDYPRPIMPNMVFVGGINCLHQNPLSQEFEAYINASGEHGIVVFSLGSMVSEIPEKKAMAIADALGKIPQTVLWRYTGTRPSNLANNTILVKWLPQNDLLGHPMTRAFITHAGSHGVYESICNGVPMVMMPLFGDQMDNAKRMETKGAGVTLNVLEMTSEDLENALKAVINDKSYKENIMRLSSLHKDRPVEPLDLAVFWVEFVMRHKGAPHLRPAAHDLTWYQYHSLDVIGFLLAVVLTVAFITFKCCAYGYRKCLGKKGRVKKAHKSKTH
# UGT 2B7 = biological target: T2, UGT 2B7 (Homo sapiens, UniProt P16662); assay: UGT substrate assay
# T2 sequence (P16662 24-529): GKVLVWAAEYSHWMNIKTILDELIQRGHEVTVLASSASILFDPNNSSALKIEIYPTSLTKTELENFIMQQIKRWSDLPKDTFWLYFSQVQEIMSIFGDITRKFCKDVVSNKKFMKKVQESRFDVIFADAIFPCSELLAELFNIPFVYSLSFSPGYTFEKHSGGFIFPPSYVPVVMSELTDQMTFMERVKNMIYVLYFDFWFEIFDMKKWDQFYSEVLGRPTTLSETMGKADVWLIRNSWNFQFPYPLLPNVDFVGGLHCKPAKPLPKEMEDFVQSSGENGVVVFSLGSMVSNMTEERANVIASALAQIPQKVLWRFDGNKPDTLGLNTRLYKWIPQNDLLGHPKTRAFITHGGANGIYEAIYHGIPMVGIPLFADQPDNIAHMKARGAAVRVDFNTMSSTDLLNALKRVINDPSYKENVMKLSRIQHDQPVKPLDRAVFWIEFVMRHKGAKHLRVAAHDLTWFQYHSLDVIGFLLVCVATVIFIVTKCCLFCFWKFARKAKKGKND
# CYP2C8 = biological target: T3, CYP2C8 (Homo sapiens, UniProt P10632); assay: CYP inhibition/activation in pooled human liver microsomes; type: in vitro ADME
# T3 sequence (P10632 1-490): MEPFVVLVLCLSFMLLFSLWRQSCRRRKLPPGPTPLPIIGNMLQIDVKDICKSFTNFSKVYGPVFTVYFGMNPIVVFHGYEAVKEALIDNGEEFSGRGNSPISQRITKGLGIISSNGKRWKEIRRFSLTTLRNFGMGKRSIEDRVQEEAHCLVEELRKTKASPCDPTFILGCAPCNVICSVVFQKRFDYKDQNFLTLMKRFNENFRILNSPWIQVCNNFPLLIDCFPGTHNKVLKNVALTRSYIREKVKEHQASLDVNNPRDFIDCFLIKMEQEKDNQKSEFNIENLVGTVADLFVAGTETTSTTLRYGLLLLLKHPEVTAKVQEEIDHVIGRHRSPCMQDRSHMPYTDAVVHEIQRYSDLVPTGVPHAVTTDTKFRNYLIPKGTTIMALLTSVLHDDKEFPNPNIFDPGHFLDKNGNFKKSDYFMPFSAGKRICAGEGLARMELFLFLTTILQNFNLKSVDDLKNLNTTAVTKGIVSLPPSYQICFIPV
# [2] = Stability in pooled human liver microsomes; type: in vitro ADME
# UGT 1A4 = biological target: T4, UGT 1A4 (Homo sapiens, UniProt P22310); assay: UGT substrate assay
# T4 sequence (P22310 29-534): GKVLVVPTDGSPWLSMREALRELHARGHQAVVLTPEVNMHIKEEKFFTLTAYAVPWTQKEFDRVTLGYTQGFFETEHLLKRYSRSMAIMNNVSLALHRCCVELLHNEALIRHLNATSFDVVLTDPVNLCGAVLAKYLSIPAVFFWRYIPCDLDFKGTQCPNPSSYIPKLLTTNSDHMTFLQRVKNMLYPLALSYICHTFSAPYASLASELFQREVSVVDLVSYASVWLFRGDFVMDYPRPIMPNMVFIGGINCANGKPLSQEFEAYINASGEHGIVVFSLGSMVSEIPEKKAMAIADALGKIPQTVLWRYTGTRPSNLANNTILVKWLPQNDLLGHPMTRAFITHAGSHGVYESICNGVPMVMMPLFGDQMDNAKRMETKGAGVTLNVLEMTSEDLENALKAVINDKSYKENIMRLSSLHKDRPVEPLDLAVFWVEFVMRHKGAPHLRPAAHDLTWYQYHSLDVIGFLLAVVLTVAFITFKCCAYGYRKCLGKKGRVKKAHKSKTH
# UGT 1A9 = biological target: T5, UGT 1A9 (Homo sapiens, UniProt O60656); assay: UGT substrate assay
# T5 sequence (O60656 26-530): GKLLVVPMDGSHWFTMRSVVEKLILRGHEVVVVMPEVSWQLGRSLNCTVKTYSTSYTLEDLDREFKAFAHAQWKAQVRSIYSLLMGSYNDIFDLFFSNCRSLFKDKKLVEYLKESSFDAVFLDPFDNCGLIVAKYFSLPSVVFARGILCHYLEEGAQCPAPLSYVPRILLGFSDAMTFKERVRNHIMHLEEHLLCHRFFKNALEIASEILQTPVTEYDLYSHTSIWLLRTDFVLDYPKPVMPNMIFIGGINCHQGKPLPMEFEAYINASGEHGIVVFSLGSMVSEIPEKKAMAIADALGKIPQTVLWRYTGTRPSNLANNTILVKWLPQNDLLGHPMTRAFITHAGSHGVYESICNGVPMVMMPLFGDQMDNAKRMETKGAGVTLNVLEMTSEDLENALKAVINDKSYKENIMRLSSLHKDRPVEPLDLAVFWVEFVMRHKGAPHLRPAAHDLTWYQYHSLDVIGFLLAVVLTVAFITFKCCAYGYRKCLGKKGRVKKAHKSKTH
# CYP3A4 = CYP3A4 (Homo sapiens, UniProt P08684); assay: CYP inhibition/activation in pooled human liver microsomes; type: in vitro ADME
# Sequence of CYP3A4 (P08684 whole entry): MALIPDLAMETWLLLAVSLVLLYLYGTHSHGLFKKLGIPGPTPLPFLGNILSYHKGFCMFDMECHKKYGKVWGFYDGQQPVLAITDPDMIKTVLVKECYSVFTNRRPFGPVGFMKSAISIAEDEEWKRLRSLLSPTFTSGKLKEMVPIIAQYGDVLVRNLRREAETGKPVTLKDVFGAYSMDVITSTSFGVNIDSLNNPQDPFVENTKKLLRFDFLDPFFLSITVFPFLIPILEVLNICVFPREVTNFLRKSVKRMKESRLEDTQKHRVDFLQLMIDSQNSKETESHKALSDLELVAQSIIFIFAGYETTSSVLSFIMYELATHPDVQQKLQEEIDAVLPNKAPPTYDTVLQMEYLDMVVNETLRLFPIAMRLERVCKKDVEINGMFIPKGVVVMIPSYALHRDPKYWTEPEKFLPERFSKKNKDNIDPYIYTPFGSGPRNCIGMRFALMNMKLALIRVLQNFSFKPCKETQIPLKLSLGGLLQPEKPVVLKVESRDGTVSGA
# HIV-1 = assay: microbe, parasite or virus in culture; conditions: Human immunodeficiency virus 1, MAGI
# UGT 1A6 = biological target: T6, UGT 1A6 (Homo sapiens, UniProt P19224); assay: UGT substrate assay
# T6 sequence (P19224 27-532): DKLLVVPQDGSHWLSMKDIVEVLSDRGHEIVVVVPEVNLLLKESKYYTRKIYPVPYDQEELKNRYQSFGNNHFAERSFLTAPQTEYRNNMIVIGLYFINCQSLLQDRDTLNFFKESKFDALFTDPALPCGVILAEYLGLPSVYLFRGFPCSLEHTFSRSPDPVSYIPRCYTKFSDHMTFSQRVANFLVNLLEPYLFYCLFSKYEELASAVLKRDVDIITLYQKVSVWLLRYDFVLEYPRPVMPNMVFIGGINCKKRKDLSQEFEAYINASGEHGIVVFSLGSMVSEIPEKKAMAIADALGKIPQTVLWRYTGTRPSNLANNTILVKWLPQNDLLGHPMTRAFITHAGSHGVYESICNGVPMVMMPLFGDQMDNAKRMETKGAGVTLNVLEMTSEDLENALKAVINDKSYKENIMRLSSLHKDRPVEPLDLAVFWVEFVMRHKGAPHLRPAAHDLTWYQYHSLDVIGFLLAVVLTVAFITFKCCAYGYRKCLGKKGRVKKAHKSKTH
# HIV-1 integrase = HIV-1 integrase (Human immunodeficiency virus type 1 group M subtype B, UniProt P04585); assay: Inhibition of the strand transfer; type: biochemical
# UGT 1A1 [3] = biological target: T1, UGT 1A1; conditions: cited from earlier work
# Sequence of CYP2D6 (P10635 whole entry): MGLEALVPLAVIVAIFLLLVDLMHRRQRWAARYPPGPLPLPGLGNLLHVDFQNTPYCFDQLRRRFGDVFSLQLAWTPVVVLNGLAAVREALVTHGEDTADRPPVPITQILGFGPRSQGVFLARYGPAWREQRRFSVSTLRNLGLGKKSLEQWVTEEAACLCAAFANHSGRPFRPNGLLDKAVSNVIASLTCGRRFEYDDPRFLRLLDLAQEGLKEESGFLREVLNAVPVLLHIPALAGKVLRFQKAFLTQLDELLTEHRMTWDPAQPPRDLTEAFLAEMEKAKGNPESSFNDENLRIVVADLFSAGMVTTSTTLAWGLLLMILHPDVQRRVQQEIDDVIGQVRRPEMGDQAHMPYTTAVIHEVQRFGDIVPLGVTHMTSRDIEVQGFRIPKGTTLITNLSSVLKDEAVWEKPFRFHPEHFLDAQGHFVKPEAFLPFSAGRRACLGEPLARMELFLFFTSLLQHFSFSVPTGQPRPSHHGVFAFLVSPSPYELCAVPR
smiles,measurement,setting,value
"O=C(O)/C(O)=C/C(=O)c1cc(Cc2ccc(F)cc2F)cn(Cc2ccccc2F)c1=O [Compound 2, 4-(5-(2,4-difluorobenzyl)-1-(2-fluoro-benzyl)-2-oxo-1,2-dihydro-pyridin-3-yl)-2-hydroxy-4-oxobut-2-enoic acid]",activation of CYP2D6,CYP2D6,did not exhibit any activation
same,inhibition of CYP2D6,CYP2D6,not an inhibitor
same,substrate activity towards UGT 1A1,UGT 1A1 [1],not a substrate
same,substrate activity towards UGT 2B7,UGT 2B7,not a substrate
same,activation of CYP2C8,CYP2C8,did not exhibit any activation
same,stability in pooled human liver microsomes,[2],good stability; also recorded: relatively stable
same,substrate activity towards UGT 1A4,UGT 1A4,not a substrate
same,substrate activity towards UGT 1A9,UGT 1A9,not a substrate
same,activation of CYP3A4,CYP3A4,did not exhibit any activation
same,inhibition of CYP3A4,CYP3A4,not an inhibitor
same,EC50,HIV-1; read-out: anti-HIV-1 EC50,≤ 500 nM
same,substrate activity towards UGT 1A6,UGT 1A6,not a substrate
CC(C)OC(=O)/C(O)=C/C(=O)c1cc(Cc2ccc(F)cc2F)cn(Cc2ccccc2F)c1=O [Compound 10],IC50,HIV-1 integrase,> 475 nM
same,conversion to compound 2 by hydrolysis in human liver microsomes,[2]; in 15 minutes,100%
"O=C(O)C(=O)C=C(O)c1cc(Cc2ccc(F)cc2F)cn(Cc2ccc(F)cc2F)c1=O [Entry 11, 4-(1,5-bis(2,4-difluorobenzyl)-2-oxo-1,2-dihydropyridin-3-yl)-4-hydroxy-2-oxobut-3-enoic acid]",IC50,HIV-1 integrase,5.5 ± 1.5 nM
same,EC50,HIV-1,300 nM
same,EC50,HIV-1; read-out: anti-HIV-1 EC50,≤ 500 nM
C[C@@H]1CCO[C@H]2Cn3cc(C(=O)NCc4ccc(F)cc4F)c(=O)c(O)c3C(=O)N12 [S/GSK 1349572],substrate activity towards UGT 1A1,UGT 1A1 [3]; primary route of metabolism and clearance is glucuronidation,substrate for UGT 1A1
"Cc1nnc(C(=O)NC(C)(C)c2nc(C(=O)NCc3ccc(F)cc3)c(O)c(=O)n2C)o1 [raltegravir, reference compound]",EC50,HIV-1; read-out: anti-HIV-1 EC50,< 6 nM
same,major mechanism of clearance in humans,UGT 1A1 [3]; humans,UGT 1A1-mediated glucuronidation
